Test results taken from patent US20100240040A1, “METHOD FOR SCREENING FOR SELECTIVE MODULATOR OF THE NF-KB PATHWAY ACTIVATION” (INSTITUT PASTEUR, priority 2007, published 2010).
Where a SMILES comes first, the peptide text is derived from it.

Columns and labels:
[1] = test system: NF-κB pathway; details: reported in WO 2005/027959; cited from earlier work
[2] = test system: AP1 pathway; assay: AP1-luc reporter assay in Jurkat cells stimulated with PMA and ionomycin; assay type: cell-based, human; details: 5 μM peptide, T-lymphocytes
Experimental: (§1) Jurkat T cells (clone 20) were transiently transfected by a DEAE-dextran method with a reporter plasmid containing the luciferase under the control of a promoter inducible by the ERK and p38 pathway (SRE-luc; Courtois et al., 1997, Mol. Cell. Biol, 17:1441-1449), the NF-AT pathway or the API pathway (respectively NF-AT-luc and AP1-luc; Northrop et al., 1993, J. Biol. […]., 268:2917-2923). Briefly, cells were washed and resuspended at 10^7 cells/ml in TBS containing 0.5 mg/ml of DEAE-dextran (Pharmacia). 1 μg per 2·10^6 cells of reporter plasmid was added. After 45 min at room temperature, the cells were diluted with 10 volumes of TBS, centrifuged, and resuspended at 10^6 cells/ml in 10% FCS-RPMI. After 24 h, cells were incubated with or without 5 μM NEMO-derived peptides (BA-NLM or BA-DR NLM) for 2 h. They were stimulated or mock-stimulated with 100 ng/ml PMA and 1 μg/ml ionomycin for 5 h, and finally lysed in luciferase buffer (25 mM Tris-phosphate pH 7.8 containing 8 mM MgCl2, 1 mM DTE, 1% Triton X100, 15% glycerol). Luciferase measurement was carried out in a Berthold Luminometer.

[3] = molecular target: T1, spCC2-LZ (MOD of NEMO) (Mus musculus, UniProt O88522); assay: Fluorescence anisotropy binding of labelled peptide to spCC2-LZ; details: labelled peptide 10 μM, increasing spCC2-LZ; read-out: dissociation constant for spCC2-LZ
T1 construct: spCC2-LZ, synthetic polypeptide subdomain CC2-LZ; made in house; host or cells: chemical synthesis
T1 sequence (O88522 253-336): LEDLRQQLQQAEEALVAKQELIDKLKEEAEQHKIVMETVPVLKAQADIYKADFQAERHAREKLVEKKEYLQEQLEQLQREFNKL
Experimental: Anisotropy measurements were performed with a QuantaMaster® fluorometer (PTI), equipped with polarizing filters for excitation and emission, and using a photomultiplier tube in the L-configuration. All experiments were carried out in a microcuvette (60 μl) at 22° C., with excitation and emission wavelengths at 495 and 513 nm. The band pass of the excitation and emission wavelengths was 2 and 4 nm, respectively. Steady-state fluorescence anisotropy, expressed as millianisotropy units was measured as described Agou et al., 2004a. All measurements were carried out in a 20 mM isoionic buffer pH 8 (10 mM acetic acide, 10 mM MES, 20 mM Tris), containing 20 mM KCl. Each data point is the result of 20 recording taken over a 2-min period. To analyse whether DR NLM binds the MOD of NEMO, fluorescent labelled BA-DR NLM (10 μM) was incubated with an increasing concentrations of spCC2-LZ and the complex formation was monitored by fluorescence polarization (P) and results are expressed as anisotropy (A) according to the formula A=2P/(3-P). The concentration of spCC2-LZ was determining by amino acid analysis (Vinolo et al; 2006). Data points were fitted to the binding isotherm equation which gives a dissociation constant of 17 μM.

[4] = test system: ERK and p38 pathway; assay: SRE-luc reporter assay in Jurkat cells stimulated with PMA and ionomycin; assay type: cell-based, human; details: 5 μM peptide, T-lymphocytes
Experimental: as §1

[5] = molecular target: T2, CC2-LZ interaction with cellular polyubiquitinylated proteins (Mus musculus, UniProt O88522); assay: Pull-down of polyubiquitinylated proteins from JM4.5.2 extracts with biotinylated CC2-LZ, anti-ubiquitin Western blot; assay type: biochemical; details: 20 μM peptide, extracts of TNF-α stimulated JM4.5.2 cells
T2 construct: made in house; host or cells: chemical synthesis (bait); crude extract of JM4.5.2 cells with or without TNFα (partners)
T2 sequence (O88522 253-336): as above
Experimental: 24·10^7 JM4.5.2 cells were stimulated or not with 10 ng/ml of TNFα for 10 minutes at 37° C., washed twice with cold PBS and lysed in 900 μl of lysis buffer containing a protease inhibitor mixture as indicated in Example 1.D. Lysates were clarified at 15 000×g at 4° C. for 30 min. 150 μl of proteins were incubated 2 h at 4° C. with 150 μl of streptavidin magnetic beads (MagPrep®, Novagen) pre-incubated 1 h at 4° C. with 10 μg of biotynilated-CC2-LZ and with or without 20 μM of peptides (BA-NLM or BA-DR NLM). Beads were washed 4 times in buffer A (10 mM Hepes pH 7.5, 150 mM NaCl, 8 mM MgCl2, 10% glycerol, 0.1 mM DDM and 1 mM DTE) and resuspended in 30 μl of laemmli buffer containing 6 M Urea. Samples were analysed by Western blotting using anti-ubiquitin antibodies (Sigma) as well as anti-NDPK-B antibodies for loading controls.
Thus, the Inventors examined whether DR NLM impedes the interaction between NEMO and the K63 polyubiquitin chains. To this end, they developed a pull down assay which uses the a peptide comprising the CC2 and the LZ domains of NEMO as a bait to pull down the polyubiquitinylated proteins as described in Example 1.J and depicted in FIG. 7A. […] After extensive washing of beads, all mono and polyubiquitinylated proteins bound to CC2-LZ were analysed by Western blot using anti-ubiquitin antibody (Sigma).

[6] = test system: NF-AT pathway; assay: NF-AT-luc reporter assay in Jurkat cells stimulated with PMA and ionomycin; assay type: cell-based, human; details: 5 μM peptide, T-lymphocytes
Experimental: as §1

[7] = molecular target: T3, Lys63-linked polyubiquitin chains (Homo sapiens, UniProt P0CG47); assay: In vitro binding assay by fluorescence polarization to polyubiquitin chains; details: tag-free peptide
T3 construct: the Lys63-linked polyubiquitin chains; purchased Boston Biochem

## CC[C@H](C)[C@H](NC(=O)[C@H](CC(=O)O)NC(=O)[C@H](C)NC(=O)[C@H](CCC(N)=O)NC(=O)[C@H](C)NC(=O)[C@H](CCCCN)NC(=O)[C@H](CC(C)C)NC(C)=O)C(=O)N[C@@H](Cc1ccc(O)cc1)C(=O)N[C@@H](CCCCN)C(=O)N[C@@H](C)C(=O)N[C@@H](CCCNC(=N)N)C(=O)N[C@@H](Cc1ccccc1)C(=O)N[C@@H](CCC(N)=O)C(=O)N[C@@H](C)C(=O)N[C@@H](CCC(=O)O)C(=O)N[C@@H](CCCNC(=N)N)C(=O)N[C@@H](Cc1c[nH]cn1)C(=O)N[C@@H](C)C(=O)N[C@@H](CCCNC(=N)N)C(=O)N[C@@H](CCC(=O)O)C(=O)N[C@@H](CCCCN)C(N)=O [DR NLM] (Ac-LKAQADIYKARFQAERHAREK-NH2; N-terminus and C-terminus assumed)
[1]
  inhibition of NF-κB activation: inhibit NF-κB activation
[2]
  effect on AP1 pathway: does not abrogate
[3]
  Kd: 17 µM
[4]
  effect on ERK and p38 pathways: does not abrogate
[5]
  inhibition of CC2-LZ interaction with polyubiquitinylated proteins: abolishes the CC2-LZ interaction with the cellular polyubiquitinylated proteins
[6]
  effect on NF-AT pathway: does not abrogate
[7]
  cooperativity index (Hill coefficient) n: 1
[7]; read-out: dissociation constant for Lys63-linked polyubiquitin chains
  Kd: 250 µM
